One may read the Emax as the greatest response seen or fitted, relative to the assay's reference.

Here are results for 9 compounds from patent US20210277003A1, “OGA INHIBITOR COMPOUNDS” (Janssen Pharmaceutica NV, priority 2018, published 2021).

Assay [1] has as its target T1, recombinant human Meningioma Expressed Antigen 5 (MGEA5), also referred to as O-GlcNAcase (OGA) (Homo sapiens, UniProt O60502).
T1 construct: Full length OGA enzyme was purchased at OnGene (cat #TP322411); purchased OnGene (so in the source)
T1 sequence (O60502 1-916): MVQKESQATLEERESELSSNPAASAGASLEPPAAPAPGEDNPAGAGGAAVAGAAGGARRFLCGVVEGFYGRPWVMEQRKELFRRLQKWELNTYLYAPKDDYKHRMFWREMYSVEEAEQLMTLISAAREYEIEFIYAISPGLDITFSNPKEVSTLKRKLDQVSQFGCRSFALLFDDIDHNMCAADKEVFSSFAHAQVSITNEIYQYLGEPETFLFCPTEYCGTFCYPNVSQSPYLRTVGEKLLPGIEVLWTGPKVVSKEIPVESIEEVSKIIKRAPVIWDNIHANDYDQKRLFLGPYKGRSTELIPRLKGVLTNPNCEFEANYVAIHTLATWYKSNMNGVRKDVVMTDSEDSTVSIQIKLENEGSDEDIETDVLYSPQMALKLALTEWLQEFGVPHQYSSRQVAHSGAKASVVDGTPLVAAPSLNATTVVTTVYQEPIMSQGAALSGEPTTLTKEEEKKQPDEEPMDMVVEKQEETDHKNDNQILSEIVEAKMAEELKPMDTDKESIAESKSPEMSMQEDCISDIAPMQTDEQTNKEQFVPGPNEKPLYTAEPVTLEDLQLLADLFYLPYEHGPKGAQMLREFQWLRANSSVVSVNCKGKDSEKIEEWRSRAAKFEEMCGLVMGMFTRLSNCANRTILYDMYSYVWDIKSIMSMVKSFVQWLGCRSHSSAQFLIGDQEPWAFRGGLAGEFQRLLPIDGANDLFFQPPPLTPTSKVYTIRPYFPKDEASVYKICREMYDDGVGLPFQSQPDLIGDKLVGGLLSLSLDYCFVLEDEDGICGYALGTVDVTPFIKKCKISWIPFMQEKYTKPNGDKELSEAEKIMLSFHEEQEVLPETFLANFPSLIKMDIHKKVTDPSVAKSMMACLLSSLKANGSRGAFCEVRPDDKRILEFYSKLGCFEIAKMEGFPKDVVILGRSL
In words: OGA biochemical assay: inhibition of hydrolysis of fluorescein mono-ß-D-N-Acetyl-Glucosamine (FM-GlcNAc), fluorescence readout. To be noted: FM-GlcNAc substrate; for Emax: read-out: Enzymatic Emax (%); for IC50: read-out: Enzymatic hOGA, pIC50 (converted). The method in brief: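 Full-length recombinant human OGA (2 nM) was pre-incubated with compound for 60 min, then reacted with 100 uM FM-GlcNAc for 6 h at room temperature in 200 mM citrate/phosphate pH 7.2 with 0.005% Tween-20. Reactions were stopped with pH 11.0 carbonate and fluorescein read at 485/538 nm. IC50 and Hill coefficient came from curve fitting.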

The subject of assay [2] is OGA in HEK293 cells inducible for P301L mutant human Tau (isoform 2N4R). Description: OGA cellular assay: immunocytochemical detection of O-GlcNAcylated proteins (CTD110.6 antibody). The class given is cell-based. The conditions noted are these: Homo sapiens, HEK293, 6 h, 6 hours incubation; for Emax: maximum = Thiamet G 200 uM; for EC50: read-out: Cellular hOGA, pEC50 (converted). In short, it runs like this: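 Cells seeded 2 days ahead in low-glucose assay medium and exposed to compounds for 6 h at 0.2% DMSO, then PFA-fixed and immunostained. Signal is 488 nm intensity from imaging (9 fields/well), with Hoechst nuclei counts as a toxicity check. IC50 from non-linear regression, with 200 uM Thiamet G per plate as maximum inhibition.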

As to `Cc1cccc(S(C)(=O)=O)c1Nc1nccc2c1ccn2CCC1CC1` [Compound 195], in assay [1], the Emax was found to be 102% and the IC50 was 1.35 nM. Besides, in assay [2], the Emax turned out to be 95.3% and the EC50 was 25.1 nM.

Consider `CC(C)C(F)(F)Cn1ccc2c(Nc3c(Cl)cccc3Cl)nccc21` [Compound 196], for which, in assay [1], the Emax is 104% and the IC50 is 1.51 nM. In assay [2], the Emax is 91.7% and the EC50 was 8.51 nM.

On to `Cc1ccnc(C(F)(F)F)c1Nc1nccc2c1ccn2CCC1CC1` [Compound 197], for which, in assay [1], the Emax amounted to 104% and the IC50 was 4.9 nM. In assay [2], the Emax came out at 86.3% and the EC50 was 56.2 nM.

For `FC(F)(F)CCn1ccc2c(Nc3c(Cl)cccc3Cl)nccc21` [Compound 200], in assay [1], the Emax came out at 103% and the IC50 was 23.4 nM. Moreover, in assay [2], the Emax stood at 70.1% and the EC50 is 513 nM.

With `Cc1ccnc(C)c1Nc1nccc2c1ccn2CC(F)(F)C(C)C` [Compound 202], in assay [1], the Emax was 101% and the IC50 is 3.09 nM. For the same compound, in assay [2], the Emax was 88.1% and the EC50 is 3.63 nM.

For `Cc1ccnc(C)c1Nc1nccc2c1ccn2CC1(F)CC1` [Compound 204], in assay [1], the Emax worked out at 101% and the IC50 is 57.5 nM. For the same compound, in assay [2], the Emax was 76.1% and the EC50 was 269 nM.

With `Cc1ccnc(C(C)(C)F)c1Nc1nccc2c1ccn2CC(C)(F)F` [Compound 205], in assay [1], the Emax amounted to 98.2% and the IC50 was 3.02 nM. Moreover, in assay [2], the Emax was 88.6% and the EC50 is 9.55 nM.

With `CCCCn1ccc2c(Nc3c(C)ccc4c3nc(C)n4C)nccc21` [Compound 206], in assay [1], the Emax was determined as 101% and the IC50 is 51.3 nM. In assay [2], the Emax stood at 63.7% and the EC50 was 661 nM.

With `CC(C)=C(F)Cn1ccc2c(Nc3c(C)cc(-c4cnn(C)c4)cc3C)nccc21` [Compound 208], in assay [1], the Emax stood at 101% and the IC50 is 10.2 nM. For the same compound, in assay [2], the Emax came to 90.1% and the EC50 was 72.4 nM.
